In US20230265116A1, “DEGRADATION OF (EGFR) BY CONJUGATION OF EGFR INHIBITORS WITH E3 LIGASE LIGAND AND METHODS OF USE” (BEIGENE, LTD., priority 2020, published 2023):
Where two headings read alike, the source gives them in different places.

Legend:
[1] = target: T1, EGFR L858R/T790M/C797S (BaF3-LTC cells) (Homo sapiens, UniProt P00533, C797S/L858R/T790M); assay: EGFR degradation HTRF assay, BaF3-LTC cells; assay type: cell-based
T1 construct: expressed in transfected cells; host or cells: BaF3
In short: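 EGFR remaining after a 16 h, 37 °C exposure (8 doses, 5-fold steps from 10 uM final, 0.2% DMSO) was quantified by HTRF antibodies in cell lysate. Percent inhibition relative to DMSO control was fitted by four-parameter logistic to give DC50; Dmax denotes maximal degradation.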

[2] = test system: EGFR Del19/T790M/C797S (H1975-clone #28); assay: EGFR degradation HTRF assay, H1975-clone #28 DTC cells; assay type: cell-based
In short: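 Engineered H1975 lines (lentiviral mutant EGFR, endogenous EGFR knocked out, single-clone verified); 16h compound, 37° C., 5% CO2, 0.2% DMSO; 8-point 5-fold series from 10 uM final. HTRF lysate read; % degradation vs DMSO, four-parameter fit → DC50, Dmax.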

[3] = BaF3-LTC cells; EGFR degradation, IC50 (DC50) from curve fit; read-out: DC50(nM) BaF3-LTC
[4] = H1975 # 28 DTC cells; EGFR degradation, IC50 (DC50) from curve fit; read-out: DC50(nM) H1975 # 28 DTC
[5] = H1975 # 28 DTC cells; maximum percentage of inhibition (degradation)
[6] = BaF3-LTC cells; maximum percentage of inhibition (degradation); read-out: Dmax (%) BaF3-LTC

T1 sequence (P00533 25-1210 T790M/C797S/L858R): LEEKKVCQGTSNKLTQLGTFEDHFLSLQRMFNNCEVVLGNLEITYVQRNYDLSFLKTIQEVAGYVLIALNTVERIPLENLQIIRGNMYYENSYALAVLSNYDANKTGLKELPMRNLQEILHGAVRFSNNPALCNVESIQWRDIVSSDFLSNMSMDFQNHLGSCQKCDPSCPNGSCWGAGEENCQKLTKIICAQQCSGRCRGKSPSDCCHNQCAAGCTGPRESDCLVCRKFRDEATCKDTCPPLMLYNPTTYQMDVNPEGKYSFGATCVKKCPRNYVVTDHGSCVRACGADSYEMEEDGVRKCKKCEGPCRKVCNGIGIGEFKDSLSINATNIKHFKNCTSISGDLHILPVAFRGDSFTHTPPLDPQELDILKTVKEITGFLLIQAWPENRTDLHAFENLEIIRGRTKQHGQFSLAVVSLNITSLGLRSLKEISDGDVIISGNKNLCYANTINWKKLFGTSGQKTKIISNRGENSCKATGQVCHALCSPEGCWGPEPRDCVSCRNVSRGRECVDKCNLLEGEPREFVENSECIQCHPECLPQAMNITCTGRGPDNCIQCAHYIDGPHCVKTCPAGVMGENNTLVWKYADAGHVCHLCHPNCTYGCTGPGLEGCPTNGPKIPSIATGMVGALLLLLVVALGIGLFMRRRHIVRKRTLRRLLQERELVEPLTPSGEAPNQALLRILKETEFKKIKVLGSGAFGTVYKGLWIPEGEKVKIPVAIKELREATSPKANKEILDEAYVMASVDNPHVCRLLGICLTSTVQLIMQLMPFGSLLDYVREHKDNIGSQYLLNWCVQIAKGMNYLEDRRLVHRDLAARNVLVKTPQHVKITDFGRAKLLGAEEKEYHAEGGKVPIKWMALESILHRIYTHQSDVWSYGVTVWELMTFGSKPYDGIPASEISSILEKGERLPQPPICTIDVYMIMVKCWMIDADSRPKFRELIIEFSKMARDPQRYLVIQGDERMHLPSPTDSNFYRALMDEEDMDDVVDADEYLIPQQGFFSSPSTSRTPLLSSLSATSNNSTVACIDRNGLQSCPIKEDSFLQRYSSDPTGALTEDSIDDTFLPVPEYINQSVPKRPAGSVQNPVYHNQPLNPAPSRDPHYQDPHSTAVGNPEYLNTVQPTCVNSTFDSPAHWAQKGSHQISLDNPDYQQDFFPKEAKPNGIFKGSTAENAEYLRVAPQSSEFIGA

SMILES | DC50 [1, 3] | DC50 [2, 4] | Dmax (%) H1975 # 28 DTC [2, 5] | Dmax [1, 6] | DC50 ([1]; read-out: DC50(nM) BaF3-LTC; BaF3-LTC cells; EGFR degradation, IC50 (DC50) from curve fit) | Dmax ([1]; read-out: Dmax (%) BaF3-LTC, BaF3-LTC cells; maximum percentage of inhibition (degradation)) | DC50 ([2]; read-out: DC50(nM) H1975 # 28 DTC; H1975 # 28 DTC cells; EGFR degradation, IC50 (DC50) from curve fit)
CCOc1cc(N2CCC(N3CCN(CCc4cc(F)c([C@H]5CCC(=O)NC5=O)c(F)c4)CC3)CC2)c(CC)cc1Nc1ncc(Br)c(Nc2ccc3nc(C)c(F)cc3c2P(C)(C)=O)n1 [Example 728, (R)-3-(4-(2-(4-(1-(4-((5-bromo-4-((5-(dimethylphosphoryl)-3-fluoro-2-methylquinolin-6-yl)amino)pyrimidin-2-yl)amino)-5-ethoxy-2-ethylphenyl)piperidin-4-yl)piperazin-1-yl)ethyl)-2,6-difluorophenyl)piperidine-2,6-dione] | 9.14 nM | 0.803 nM | 87.57% | – | – | – | –
CCOc1cc(N2CCC(N3CCN(CCCc4cc(F)cc5c4oc(=O)n5C4CCC(=O)NC4=O)CC3)CC2)c(CC)cc1Nc1ncc(Br)c(Nc2cc(F)c3nc(CC)ccc3c2P(C)(C)=O)n1 (stereo not drawn) [Example 620, 3-(7-(3-(4-(1-(4-((5-bromo-4-((5-(dimethylphosphoryl)-2-ethyl-8-fluoroquinolin-6-yl)amino)pyrimidin-2-yl)amino)-5-ethoxy-2-ethylphenyl)piperidin-4-yl)piperazin-1-yl)propyl)-5-fluoro-2-oxobenzo[d]oxazol-3(2H)-yl)piperidine-2,6-dione] | 8.28 nM | 2.04 nM | 78.78% | 93.8% | – | – | –
CCc1ccc2c(P(C)(C)=O)c(Nc3nc(Nc4cc(CC)c(N5CCC(N6CCN(C(=O)[C@@H]7CCN(c8cc(F)c([C@H]9CCC(=O)NC9=O)c(F)c8)C7)CC6)CC5)cc4OC4CC4)ncc3Br)ccc2n1 [Example 655, (R)-3-(4-((R)-3-(4-(1-(4-((5-bromo-4-((5-(dimethylphosphoryl)-2-ethylquinolin-6-yl)amino)pyrimidin-2-yl)amino)-5-cyclopropoxy-2-ethylphenyl)piperidin-4-yl)piperazine-1-carbonyl)pyrrolidin-1-yl)-2,6-difluorophenyl)piperidine-2,6-dione] | 16.4 nM | 4.21 nM | 81.86% | 90.2% | – | – | –
CCc1ccc2c(P(C)(C)=O)c(Nc3nc(Nc4cc(CC)c(N5CCC(N6CCN(CCc7cccc8c7n(C)c(=O)n8C7CCC(=O)NC7=O)CC6)CC5)cc4OC4CC4)ncc3Br)ccc2n1 (stereo not drawn) [Example 585, 3-(4-(2-(4-(1-(4-((5-bromo-4-((5-(dimethylphosphoryl)-2-ethylquinolin-6-yl)amino)pyrimidin-2-yl)amino)-5-cyclopropoxy-2-ethylphenyl)piperidin-4-yl)piperazin-1-yl)ethyl)-3-methyl-2-oxo-2,3-dihydro-1H-benzo[d]imidazol-1-yl)piperidine-2,6-dione] | 2.5 nM | 0.695 nM | 79.08% | 96.2% | – | – | –
CCc1cc(Nc2ncc(Br)c(Nc3ccc4nc(C)ccc4c3P(C)(C)=O)n2)c(OC)cc1N1CCC(N2CCN(C(=O)Cc3cc(F)c([C@H]4CCC(=O)NC4=O)c(F)c3)CC2)CC1 [Example 670, (R)-3-(4-(2-(4-(1-(4-((5-bromo-4-((5-(dimethylphosphoryl)-2-methylquinolin-6-yl)amino)pyrimidin-2-yl)amino)-2-ethyl-5-methoxyphenyl)piperidin-4-yl)piperazin-1-yl)-2-oxoethyl)-2,6-difluorophenyl)piperidine-2,6-dione] | 3.37 nM | 0.634 nM | 83.95% | 88.3% | – | – | –
CCOc1cc(N2CCC(N3CCN(CCc4cc5oc(=O)n(C6CCC(=O)NC6=O)c5cc4F)CC3)CC2)c(CC)cc1Nc1ncc(Br)c(Nc2ccc3nc(CC)ncc3c2P(C)(C)=O)n1 (stereo not drawn) [Example 565, 3-(6-(2-(4-(1-(4-((5-bromo-4-((5-(dimethylphosphoryl)-2-ethylquinazolin-6-yl)amino)pyrimidin-2-yl)amino)-5-ethoxy-2-ethylphenyl)piperidin-4-yl)piperazin-1-yl)ethyl)-5-fluoro-2-oxobenzo[d]oxazol-3(2H)-yl)piperidine-2,6-dione] | – | – | 74.32% | – | 3.92 nM | 93.2% | 0.626 nM
[2H]C1([2H])CC([2H])(c2c(F)cc(CCN3CCN(C4CCN(c5cc(OCC)c(Nc6ncc(Br)c(Nc7ccc8nc(C)ccc8c7P(C)(C)=O)n6)cc5CC)CC4)CC3)cc2F)C(=O)NC1=O (stereo not drawn) [Example 570, 3-(4-(2-(4-(1-(4-((5-bromo-4-((5-(dimethylphosphoryl)-2-methylquinolin-6-yl)amino)pyrimidin-2-yl)amino)-5-ethoxy-2-ethylphenyl)piperidin-4-yl)piperazin-1-yl)ethyl)-2,6-difluorophenyl)piperidine-2,6-dione-3,5,5-d3] | 20.5 nM | 3.03 nM | 76.54% | – | – | – | –
CCOc1cc(N2CCC(N3CCN(CCc4cc5oc(=O)n(C6CCC(=O)NC6=O)c5cc4C)CC3)CC2)c(CC)cc1Nc1ncc(Br)c(Nc2ccc3c(=O)n(CC)ncc3c2P(C)(C)=O)n1 (stereo not drawn) [Example 554, 3-(6-(2-(4-(1-(4-((5-bromo-4-((5-(dimethylphosphoryl)-2-ethyl-1-oxo-1,2-dihydrophthalazin-6-yl)amino)pyrimidin-2-yl)amino)-5-ethoxy-2-ethylphenyl)piperidin-4-yl)piperazin-1-yl)ethyl)-5-methyl-2-oxobenzo[d]oxazol-3(2H)-yl)piperidine-2,6-dione] | 2.49 nM | 0.662 nM | 67.4% | 91.9% | – | – | –
CCc1ccc2c(P(C)(C)=O)c(Nc3nc(Nc4cc(CC)c(N5CCC(N6CCN(CCc7c(F)ccc8c7n(C)c(=O)n8C7CCC(=O)NC7=O)CC6)CC5)cc4OC)ncc3Br)ccc2n1 (stereo not drawn) [Example 452, 3-(4-(2-(4-(1-(4-((5-bromo-4-((5-(dimethylphosphoryl)-2-ethylquinolin-6-yl)amino)pyrimidin-2-yl)amino)-2-ethyl-5-methoxyphenyl)piperidin-4-yl)piperazin-1-yl)ethyl)-5-fluoro-3-methyl-2-oxo-2,3-dihydro-1H-benzo[d]imidazol-1-yl)piperidine-2,6-dione] | 3.96 nM | 0.863 nM | 78.26% | 89.7% | – | – | –
CCOc1cc(N2CCC(N3CCN(CCc4c(C(F)(F)F)ccc5c4oc(=O)n5C4CCC(=O)NC4=O)CC3)CC2)c(CC)cc1Nc1ncc(Br)c(Nc2ccc3nc(CC)ccc3c2P(C)(C)=O)n1 (stereo not drawn) [Example 724, 3-(7-(2-(4-(1-(4-((5-bromo-4-((5-(dimethylphosphoryl)-2-ethylquinolin-6-yl)amino)pyrimidin-2-yl)amino)-5-ethoxy-2-ethylphenyl)piperidin-4-yl)piperazin-1-yl)ethyl)-2-oxo-6-(trifluoromethyl)benzo[d]oxazol-3(2H)-yl)piperidine-2,6-dione] | 55.1 nM | 2.86 nM | 75.94% | 85.6% | – | – | –
CCOc1ccc2c(P(C)(C)=O)c(Nc3nc(Nc4cc(CC)c(N5CCC(N6CCN(C(=O)[C@@H]7CCN(c8cc(F)c([C@H]9CCC(=O)NC9=O)c(F)c8)C7)CC6)CC5)cc4OC)ncc3Br)ccc2n1 [Example 677, (R)-3-(4-((R)-3-(4-(1-(4-((5-bromo-4-((5-(dimethylphosphoryl)-2-ethoxyquinolin-6-yl)amino)pyrimidin-2-yl)amino)-2-ethyl-5-methoxyphenyl)piperidin-4-yl)piperazine-1-carbonyl)pyrrolidin-1-yl)-2,6-difluorophenyl)piperidine-2,6-dione] | 38 nM | 3.83 nM | 77.05% | 94.3% | – | – | –
